Each structure is given as a SMILES string. “Also recorded” adds a separate entry of the source.

Consider one compound from patent publication US20260151413A1, “ANTICANCER DRUG CONJUGATES” (Ariel Scientific Innovations Ltd., priority 2022, published 2026).

For test [1], the system named is KG-1a. As to the kind of experiment: WST-1 proliferation assay, KG-1a. Format: cell-based. The following applies: Homo sapiens, KG-1a; WST-1, 48 hours of treatment. On the procedure: (§1) Albert Pinhasov (Ariel University, Ariel, Israel). […] Granta cells were kindly provided by Prof.
(§2) Table 3 [resents the calculated IC50 values (μM) for each chimera in different hematological malignancies cell-lines. The proliferation rate was measured by WST-1 assay after 48 hours of treatment. The result shown for each concentration point represents the […]
Background: Tetrazolium assays rely on reduction of a dye to a coloured formazan, in cell work by metabolically active cells.

Test [2] concerns OCI-AML3. As to the kind of experiment: WST-1 proliferation assay, OCI-AML3. Format: cell-based. The settings on record: Homo sapiens, OCI-AML-3; WST-1, 48 hours of treatment. The protocol: as §1, §2
Test [3] deals with OCI-AML3, KG-1a, Granta, Jeko-1 and BV-173 cells. Put plainly: Mitochondrial depolarization (Muse Mitochondrial Kit). In kind it is cell-based. The settings on record: 50-250 nM depending on cell line, 48 hours, compared to the parental drug. The protocol:
Changes in mitochondrial potential and cellular plasma membrane permeabilization, were determined with the Muse® Mitochondrial Kit (Luminex, USA). Briefly, Cells were treated with DMSO or the relevant chimera for 48 hours. The cells were incubated with MitoPotential working solution for 20 minutes at 37° C. in 5% CO2. Then, 5 μL Muse® MitoPotential 7-ADD reagent were added and the cells were incubated for 5 minutes at room temperature. The percentage of four cell populations: live (mitopotential+/7−AAD−), depolarized live (mitopotential−/7−AAD−), dead (mitopotential+/7−AAD+), and depolarized dead (mitopotential−/7−AAD+) were measured using the Muse® Cell Analyzer (Luminex, USA).
(§3) Chimera 9 was evaluated for its biological impact on mitochondrial function and cell death. To that end, the inventor treated the following cell lines OCI-AML3 (100 nM), KG-1a (100 nM), Granta (250 nM), Jeko-1 (50 nM) and BV-173 (50 nM) with doxorubicin or chimera 9.

Test [4] relates to JEKO-1. Put plainly: WST-1 proliferation assay, JEKO-1. In kind it is cell-based, human. The settings on record: Homo sapiens, JeKo-1; WST-1, 48 hours of treatment. On the procedure:
as §1, §2

Test [5] relates to Human primary anaplastic thyroid cancer (ATC) cells. As to the kind of experiment: Vitality/proliferation of primary anaplastic thyroid cancer cells. In kind it is cell-based. The settings on record: 100 nM, 250 nM, 500 nM; 3, 5 and 7 days. The protocol:
Human primary anaplastic thyroid cancer (ATC) cells were treated with chimera 9 (100 nM, 250 nM, and 500 nM), or Doxorubicin (100 nM, 250 nM, and 500 nM), or with vehicle, for 3, 5, and 7 days.

Test [6] relates to aggressive papillary thyroid cancer cells. Put plainly: Proliferation of aggressive papillary thyroid cancer cells. In kind it is cell-based. The settings on record: 10 nM and 100 nM, with respect to DMSO control. On the procedure: Chimera 9 (also referred to herein as Doxorubizen) was evaluated in two different concentrations (10 nM and 100 nM) on aggressive papillary thyroid cancer and with respect to the parent anticancer drug Doxorubicin.

Test [7] concerns OCI-AML3, KG-1a, Granta, Jeko-1 and BV-173 cells. As to the kind of experiment: Apoptosis assay (Muse AnnexinV and Dead Cell kit). Format: cell-based. The settings on record: 50-250 nM depending on cell line, 48 hours, compared to the parental drug. The protocol: Cells were analyzed using the multifunctional Muse®AnnexinV and Dead Cell kit (Luminex/Millipore, Austin, Texas, USA). Cells were treated with indicated concentrations of Doxorubizen, the corresponding parent drug, or with DMSO. After 48 hours of incubation cells were harvested, washed twice in PBS, and 2×10^5 cells were stained with 100 μl of Muse AnnexinV and Dead Cell Reagent. Samples were incubated for 20 min at room temperature in the dark. Cells were analyzed by the Muse®CellAnalyzer system (Millipore, Billerica, MA, USA), and the percentage of apoptosis was determined using Guava software (Luminex/Millipore, USA, version 3.3).
as §3

For test [8], the system named is Rec-1. As to the kind of experiment: WST-1 proliferation assay, Rec-1. Format: cell-based, human. The following applies: Homo sapiens, Rec1; WST-1, 48 hours of treatment. On the procedure:
as §1, §2

Test [9] relates to GRANTA. Put plainly: WST-1 proliferation assay, GRANTA. Format: cell-based. The following applies: WST-1, 48 hours of treatment. On the procedure:
as §1, §2

Test [10] concerns OCI-AML3, KG-1a, Granta, Jeko-1, BV-173 and MDA MB-231 cell-lines. Put plainly: Low-dose proliferation test on aggressive cell-lines. In kind it is cell-based. The following applies: 50 nM-250 nM. On the procedure:
The cytotoxicity of the synthesized chimeras on MDA MB-328 was determined by measuring the mitochondrial enzyme activity, using a commercial XTT assay kit (Biological Industries, Bet-Ha'emek, Israel). All samples contained DMSO (Sigma Aldrich) at final concentration […], XTT reagent was added, and the cells were re-incubated for additional 3 h. During that time, the absorbencies in the wells were measured with a TECAN Infinite M200 ELISA reader at both 480 and 680 nm. The difference between these measurements was used for calculating the % Growth Inhibition (GI) in test wells compared to two controls: cells that were exposed to the medium and solvent, and those which were exposed to a solvent-free medium. All the tests were done in tetra-plicate; each experiment was conducted three times.
Therefore, it was decided to reduce chimera 9 and the parental drug (doxorubicin) doses to 50-250 nM range on the most four aggressive hematological malignancies cell-lines (OCI-AML3, KG-1a, Granta and Jeko-1). Moreover, chimera 9 was examined on an additional aggressive leukemia cell line (BV-173) and breast cancer cell-line model (MDA MB-231).

Test [11] relates to MUTZ5. Put plainly: WST-1 proliferation assay, MUTZ5. In kind it is cell-based, human. The following applies: Homo sapiens; WST-1, 48 hours of treatment. On the procedure:
as §1, §2

Test [12] has as its system MINO. As to the kind of experiment: WST-1 proliferation assay, MINO. In kind it is cell-based, human. The following applies: Homo sapiens, MINO; WST-1, 48 hours of treatment. On the procedure: as §1, §2
Test [13] concerns BV-173 cells. Put plainly: DNA damage by dual staining of pH2A.X and pATM. In kind it is cell-based. The following applies: 50 nM, 3 hours, compared to the parental drug. The protocol: BV-173 cells (2×10^5 cells/well) were treated with DMSO, Doxorubicin or Doxorubizen. After incubation for 3 hours, phosphorylation level of ATM and H2AX was measured by Muse cell analyzer using Muse Multi-Color DNA Damage Kit (Luminex Corporation, Part number: MCH200107) according to manufacturer's instructions. Phosphorylation levels were determined using Guava software (Luminex/Millipore, USA, version 3.3).
BV-173 cells were exposed to 50 nM chimera 9 or the non-conjugated drug Doxorubicin, and DNA damage was analyzed after 3 hours by using dual staining of phospho-Histone H2A.X (Ser139) and phospho-ATM (Ser1981) antibodies.

For orientation: IC50 means the concentration needed to halve the response being measured. Read a low IC50 as higher potency. `COC(=O)N(C)/N=N/c1ccc(CNC2CC(OC3CC(O)(C(=O)CO)Cc4c(O)c5c(c(O)c43)C(=O)c3c(OC)cccc3C5=O)OC(C)C2O)cc1` (stereo not shown) [Chimera 9, (E)-methyl-3-(4-(((3-hydroxy-2-methyl-6-((3,5,12-trihydroxy-3-(2-hydroxyacetyl)-10-methoxy-6,11-dioxo-1,2,3,4,6,11-hexahydrotetracen-1-yl)oxy)tetrahydro-2H-pyran-4-yl)amino)methyl)phenyl)-1-methyltriaz-2-ene-1-carboxylate]: the IC50 came to 0.4 µM in test [1]; 1.24 µM in [2]; 0.85 µM in test [4]; 0.52 µM in [8]; 2.59 µM in test [9]; 0.52 µM in [11]. The IC50 in test [12] worked out at 0.48 µM. The mitochondrial membrane potential entry in [3] is recorded as “significantly collapsed mitochondrial membrane potential”. Besides, the “vitality/proliferation of primary human ATC cells” value in test [5] is listed as “reduced the vitality/proliferation of primary human ATC cells significantly; also recorded: higher effect”. Besides, the “proliferation of thyroid cancer cells” value in test [6] is given as “reduce significantly the proliferation”. For the same compound, the rate of apoptosis entry in test [7] is “substantial increase in the rate of apoptosis”. Moreover, in [10], the “proliferation rate versus corresponding controls” value is recorded as “significant reduction in the proliferation rate”. Moreover, the “DNA damage: co-activation of pH2A.X and pATM” value in [13] was “significant co-activation of pH2A.X and pATM”.
